Measured values reported in US20240398943A1, “METHODS OF TREATING CANCER AND THE PHARMACEUTICAL COMPOSITIONS THEREOF” (SYSTIMMUNE, INC., priority 2021, published 2024).
“And” between values parts separate entries of the source, which are not always exact repeats. Equal values may be shown once. Read-outs that look alike come from different tables or passages of the source.

What was measured:
[1] = tested on: NCI-H1975 cells (EGFR L858R/T790M) tumor xenograft
Protocol: (§1) Xenotransplantation of human cancer cells into immunocompromised mice is a gold-standard model used for pre-clinical oncology research and testing of anti-cancer therapies. In general, human cancer cell lines are injected below the skin of the mouse. […] The primary outcome parameter is growth inhibition by the drug, for which tumor size is measured over time, often externally with calipers. After the tumor reaches a certain size, the mice are euthanized. Drug effects on the tumor are further analyzed on a tissue level or molecular level (e.g., DNA, proteins). The primary outcome parameter of a xenograft model for testing drug efficacy is the growth of the treated tumor versus control. Typically, xenograft tumors grow from 100 mm^3 (6 mm diameter) to 1000 mm^3 (12 mm diameter) in several weeks. The growth rate often declines with larger tumor sizes, as opposed to exponential growth in (2D) in vitro experiments. Tumor growth inhibition varies per drug and implanted cell line. The effect of therapeutics can be directly on tumor cells, or indirectly via the microenvironment such as the inhibition of vessel formation, or both.
(§2) The experiment animals used were of Balb/c-nu mouse, female, ages 5^˜7 weeks, weight 17^˜21 g.
(§3) To establish xenograft model of NSCLC, two lung cancer cell lines expressing were used. Human lung adenocarcinoma cell line HCC827_936 was clonally derived from HCC827 cell line isolated from NSCLC tissue of a patient (ATCC). HCC827_936 cells express EGFR mutations of exon19del and exon20ins. The other lung cancer cell line, NCI-H1975 cells (ATCC), express the EGFR L858R/T790M double mutation.
(§4) Each of the three human cancer cell lines was cultured in RPMI1640 medium containing 10% fetal bovine serum, collected in the exponential growth phase, resuspended in PBS to a suitable concentration, and used for subcutaneous tumor implantation in mice.
When the tumor grew to an average volume of about 170 mm^3, randomly grouped according to tumor size and mouse weight to establish […] NCI-H1975 xenograft model.
(§5) Tumor volume (mm^3) V=½×[…], where a represents the long diameter and b represents the short diameter. Relative tumor volume (RTV), RTV=Vt/V0, where V0 is the tumor volume at time 0 and Vt is the tumor volume after treatment at time t. The T/C value (%) is an indicator of the tumor response to treatment and is the most used evaluation indicator. T/C %=TRTV/CRTV×100%, where TRTV is treatment group average RTV and CRTV is control group average RTV. The T/C value (%) can also be calculated as T/C %=TTW/CTW×100%, where TTW is the average tumor weight at the end of the treatment group experiment and CTW is the average tumor weight at the end of the control group experiment.

[2] = tested on: HCC827_936 cells (EGFR exon19del and exon20ins) tumor xenograft
Protocol: as §1, §2, §3, §4
When the tumor grew to an average volume of about 163 mm^3, randomly grouped according to tumor size and mouse weight to establish HCC827_936 xenograft model.
as §5

[3] = tested on: FaDu cells (wild type EGFR) tumor xenograft
Protocol: as §1, §2
To establish xenograft model of HNSCC, human head and neck cancer cells, FaDu cells, were transplanted into the mice to establish the xenograft model of HNSCC. FaDu is a cell line isolated from a hypopharyngeal tumor of a squamous cell carcinoma patient, which expresses wild type EGFR (ATCC).
as §4
When the tumor grew to an average volume of about 230 mm3, randomly grouped according to tumor size and mouse weight to establish human head and neck squamous cell carcinoma cells FaDu xenograft model.
as §5, with “(mm3)” for “(mm^3)”

[4] = Osimertinib 96 mg/kg p.o. QD, Day 25
[5] = Osimertinib 96 mg/kg/wk p.o. QD, Day 31

Row | Molecule | T/C [1, 4] | Tumor volume x ± SD [1, 4] | TGI ([1]; mouse, in vivo) | Tumor volume x ± SD ([1]; mouse, in vivo) | mice died before D25 ([1]; mouse, in vivo) | T/C [2, 5] | Tumor volume x ± SD [2, 5] | mortality rate ([2]; Osimertinib single-agent (96 mg/kg), before D31) | mice died before D31 ([2]; female, Balb/c-nu, mouse, in vivo) | TGI ([2]; mouse, in vivo) | Tumor volume x ± SD ([2]; mouse, in vivo) | body weight / weight loss ([3]; all dose groups of the treatment) | death of mice before the end of the experiment ([3]; all dose groups of the treatment, 5 mice per group) | mortality rate ([3]; paclitaxel 20.6 + carboplatin 28 mg/kg i.v. QW) | mice with severe weight loss (>20%) before death ([3]; paclitaxel 20.6 + carboplatin 28 mg/kg i.v. QW, of the 4 mice that died) | TGI ([3]; paclitaxel […] + carboplatin 28 mg/kg i.v. QW)
1 | C=CC(=O)Nc1cc(Nc2nccc(-c3cn(C)c4ccccc34)n2)c(OC)cc1N(C)CCN(C)C [Osimertinib] | 4.7% | 75.02 mm^3 | 95.35% and 95.4% | 75.0 ± 60.3 mm^3 | no mouse died | 45.1% | 344.53 mm^3 | 60% | 3 | 54.89% and 54.9% | 344.5 ± 23.6 mm^3 |  |  |  |  | 
2 | paclitaxel+carboplatin |  |  |  |  |  |  |  |  |  |  |  | fluctuated significantly | 4 | 80% | 3 | 56.16%
